Entries after “also recorded” stand apart in the source; their conditions may differ. Marks after values point to notes of the source that are not given here.
Assays:
[1] = test system: 60 to 80 years old subjects (Impaired Elderly and Healthy Elderly); experiment: Bond-Lader Visual Analogue Scales (BL-VAS) in 60 to 80 years old subjects, interim analysis; assay type: in vivo, human; details: low dose (100 mcg); at 45 min
Description: The study is conducted according to a double-blind, placebo-controlled, four-period cross-over design. Forty healthy subjects, both male and female within an age range of 60 to 80 years are planned to be included in the study in 2 groups: 1) 20 subjects with a memory performance between 1-2 Standard Deviation below the average for their age, gender, and educated level (Impaired Elderly) and 2) 20 subjects with age (±3 years), gender, and educational level matched (in order to speed up the study matching was stopped after the interim analysis) with an average memory performance between 0.5 Standard Deviation below and 0.5 Standard Deviation above from normative values (Healthy Elderly). Classification in terms of impaired or healthy elderly will be determined by a one-off testing of memory performance using the Rey Verbal Learning Task (Rey A; L'examen psychologique dans les cas d'encephalopathy traumatique 1958 Paris; Presses Universitaire de France; or Van der Elst et al; J Int Neuropsychol Soc 2005, 11 (3), pp 290-302) according to fully standardized procedures as applied in The Maastricht Aging Study (Jolles et al; Maastricht Aging Study; determinants of cognitive aging; Maastricht, The Netherlands, Neuropsych Publishers 1995). […]

[2] = test system: spatial memory in male C57BL/6NCrl mice; experiment: Object Location Task (OLT), 24-hour retention interval; assay type: in vivo; details: for d2 index, discrimination index between the new and familiar objects for T2: given 3 hours after T1, T2 after 24 h, mean (SEM)
Text: The objective of this study was to evaluate the cognitive improvement effects of Roflumilast on spatial memory employing Object Location Task (OLT) in male C57BL/6NCrl mice. Roflumilast was compared with data of the already established PDE4 inhibitor Rolipram in the same model.
Maintenance of Animals Twenty-four 7 month-old male C57BL/6NCrl mice (Charles River, L'Arbresle, France) were used (average body weights: 27.6 g). The animals were kept under a 12/12-hour light/dark cycle (lights on from 07.00 pm to 07.00 am) with free access to food and water. All testing was done between 09.00 am and maximally 06.00 pm.
Preparation of Compounds for Administration Both rolipram (Sigma-Aldrich St. Louis, USA; MW 275.34) and roflumilast (Biocrea, Radebeul, Germany; MW 403.21) were dissolved in dimethylsulfoxide (DMSO) and kept at 4 ° C.; this stock solution was used for further dilutions in 0.5% methylcellulose. Each of rolipram and roflumilast is used in form of its free base. All injected solutions consisted of 0.5% methylcellulose with a fixed DMSO percentages (1.2%) (vehicle).
Object Location Task Studies in Rodents For the Object Location Task (OLT), doses of 0.01 mg/kg, 0.03 mg/kg and 0.1 mg/kg of Rolipram or Roflumilast or vehicle were administered subcutaneously (s.c.). Based on previous findings, PDE4 inhibitor single administration was performed 3 hours after the first trial as this has an optimum effect on object memory performance. The injection volume was 5 μl/g.
The OLT apparatus consisted of a circular arena, 40 cm in diameter. Half of the 40 cm transparent polyvinyl chloride wall was covered from the outside with white paper. Two objects were placed symmetrically about 10 cm away from the wall on the separation line, between the transparent and covered side of the arena. Four different sets of objects were available: (1) a cone made of brass (maximal diameter 6 cm and total height 3.8 cm), (2) a transparent glass bottle (diameter 2.7 cm, height 8.5 cm) filled with sand and water, (3) a massive metal cube (2.5 cm×5 cm×7.5 cm) with two holes (diameter 1.5 cm), and (4) a massive aluminum cube with a tapering top (4.5 cm×4.5 cm×8.5 cm).
A testing session comprised two trials of 4 minutes. Before each trial, mice were placed in an empty Makrolon cage (incubation cage) for the same amount of time as the trial (4 min). During the first trial (T1), two identical objects were placed symmetrically about 10 cm away from the wall on the separation line between the transparent and covered side of the arena. After the first exploration period of 4 min, the mouse was put back in its home cage. Mice then received treatment at 3 hours post T1. Subsequently, after a predetermined delay interval (24h), the mouse was placed in the apparatus for the second trial of 4 min (T2). Two identical objects as in T1 were used; one object was placed in the previously used position, whereas the other was placed in a novel position. The novel position of the object could either be a fixed distance towards the front or a fixed distance towards the back of the arena for both objects. The times spent exploring each object during T1 and T2 were recorded manually using a personal computer. All objects and locations were used in a balanced manner to exclude possible object and/or location preferences. To avoid olfactory cues, the objects were thoroughly cleaned with 70% ethanol after each trial. The testing order of conditions was determined randomly.
Statistical Data Analysis The measurements reflected the time spent by the mice in exploring each object during T1 and T2. The time spent in exploring the two identical samples in T1 were represented by ‘a1’ and ‘a2’, respectively. The time spent in exploring the sample and the new object in T2 were represented by ‘a’ and ‘b’, respectively. From these exploration times the following variables were calculated: e1, e2, and d2 (Table 1). The d2 index is a relative measure of discrimination corrected for exploratory activity. […]

O=C(Nc1c(Cl)cncc1Cl)c1ccc(OC(F)F)c(OCC2CC2)c1 [roflumilast, N-(3,5-dichloropyridin-4-yl)-3-cyclopropylmethoxy-4-difluoromethoxybenzamide]
(subjective) alertness in comparison with placebo, based on BL-VAS scores [1]: significantly higher | d2 index, discrimination index between the new and familiar objects for T2 ([2]; 0.01 mg/kg s.c.): 0.04 (0.05) | d2 index compared with the vehicle condition (post-hoc Bonferroni t-test) ([2]; 0.03 mg/kg s.c.): differed significantly from the vehicle condition | d2 index, discrimination index between the new and familiar objects for T2 ([2]; 0.03 mg/kg s.c.): 0.34 (0.03) ### | d2 index compared with zero (one-sample t-test) ([2]; 0.03 mg/kg s.c., after twenty-four hours): significantly differed from zero | d2 index, discrimination index between the new and familiar objects for T2 ([2]; 0.1 mg/kg s.c.): 0.00 (0.06) | effect on spatial memory measured by the object location task test ([2]; single subcutaneous administration of 0.01 mg/kg): nearly no effect | effect on spatial memory measured by the object location task test ([2]; single subcutaneous administration of 0.03 mg/kg, 0.03 mg/kg): effective; also recorded: pronounced effect | effect on spatial memory measured by the object location task test ([2]; single subcutaneous administration of 0.1 mg/kg): completely no effect

Reference: patent US10357486B2, “Treatment of cognitive impairment with PDE4 inhibitor” (Universiteit Maastricht, priority 2013, dated 2019)
